# Laboratory results reported in patent US8476197B2, “Aminopropenoates as fungicides” (priority 2009, dated 2013).
# Marks after values point to notes of the source that are not given here.
# Details: pH 2.7
row,Structure (SMILES),Log P
1,COC(=O)C(C#N)=C(NC1(c2c(F)cccc2F)CC1)c1cccnc1Cl [Compound 380],2.8^[a]
2,COC(=O)C(C#N)=C(NC(c1ccc(Cl)cc1)C1CC1)c1cccnc1Cl (stereo not drawn) [Compound 381],3.58^[a]
3,COC(=O)C(C#N)=C(NC1(c2ccccc2Cl)CC1)c1cccnc1Cl [Compound 382],2.61^[a]
4,COC(=O)C(C#N)=C(NC1(c2cccc(Cl)c2)CC1)c1cccnc1Cl [Compound 383],3.11^[a]
5,COC(=O)C(C#N)=C(NC1(c2ccc(Cl)cc2)CC1)c1cccnc1Cl [Compound 384],3.19^[a]
6,COC(=O)C(C#N)=C(NC(C)(C)c1ccc(OC)cc1)c1cccnc1Cl [Compound 386],3.02^[a]
7,COC(=O)C(C#N)=C(NC(C)c1ccc(Cl)c(Cl)c1)c1cccnc1Cl (stereo not drawn) [Compound 387],3.58^[a]
8,COC(=O)C(C#N)=C(NC(C)c1cc(Cl)cc(Cl)c1)c1cccnc1Cl (stereo not drawn) [Compound 388],3.68^[a]
9,COC(=O)C(C#N)=C(NC(CC(F)(F)F)c1ccccc1)c1cccnc1Cl (stereo not drawn) [Compound 389],2.98^[a]
10,COC(=O)C(C#N)=C(NC(c1cccc(Cl)c1)C1CC1)c1cccnc1Cl (stereo not drawn) [Compound 390],2.93^[a]
11,COC(=O)C(C#N)=C(NC(C)c1cc(Cl)ccc1Cl)c1cccnc1Cl (stereo not drawn) [Compound 394],3.28^[a]
12,COC(=O)C(C#N)=C(NC(C)c1ccc(C(F)(F)F)cc1)c1cccnc1Cl (stereo not drawn) [Compound 395],3.37^[a]
13,COC(=O)C(C#N)=C(NC(C)c1ccc(F)cc1)c1cccnc1Cl (stereo not drawn) [Compound 397],2.89^[a]
14,COC(=O)C(C#N)=C(NC(c1ccccc1)C1CC1)c1cccnc1Cl (stereo not drawn) [Compound 398],3.24^[a]
15,COC(=O)C(C#N)=C(NC(C)c1cccc(C(F)(F)F)c1)c1cccnc1Cl (stereo not drawn) [Compound 401],3.28^[a]
16,COC(=O)C(C#N)=C(NC(C)c1ccc2c(c1)OCO2)c1cccnc1Cl (stereo not drawn) [Compound 402],2.53^[a]
17,COC(=O)C(C#N)=C(NC(C)c1ccc(C(C)(C)C)cc1)c1cccnc1Cl (stereo not drawn) [Compound 406],4.23^[a]
18,COC(=O)C(C#N)=C(NC(C)c1ccc(OC)cc1)c1cccnc1Cl (stereo not drawn) [Compound 408],2.65^[a]

# Continued, values first:
row,Log P,Structure (SMILES)
1,2.98^[a],COC(=O)C(C#N)=C(NC(C)(C)c1c(F)cccc1F)c1cccnc1Cl [Compound 385]
2,3.15^[a],CCC(NC(=C(C#N)C(=O)OC)c1cccnc1Cl)c1ccccc1OC (stereo not drawn) [Compound 391]
3,2.84^[a],COC(=O)C(C#N)=C(NC(C)c1ccccc1OC)c1cccnc1Cl (stereo not drawn) [Compound 392]
4,3.15^[a],COC(=O)C(C#N)=C(NC(C)(C)c1ccccc1Cl)c1cccnc1Cl [Compound 393]
5,3.02^[a],COC(=O)C(C#N)=C(NC(C)c1cccc(C)c1)c1cccnc1Cl (stereo not drawn) [Compound 396]
6,2.98^[a],COC(=O)C(C#N)=C(NC(C)(C)c1ccc(F)cc1)c1cccnc1Cl [Compound 399]
7,2.34^[a],COC(=O)C(C#N)=C(NC(C)c1ccc(OC)c(OC)c1)c1cccnc1Cl (stereo not drawn) [Compound 400]
8,3.19^[a],COC(=O)C(C#N)=C(NC(C)c1cccc(Cl)c1)c1cccnc1Cl (stereo not drawn) [Compound 403]
9,2.89^[a],COC(=O)C(C#N)=C(NC(C)c1ccccc1)c1cccnc1Cl (stereo not drawn) [Compound 404]
10,3.02^[a],CCC(NC(=C(C#N)C(=O)OC)c1cccnc1Cl)c1ccccc1 (stereo not drawn) [Compound 405]
11,3.63^[a],CCc1ccc(C(C)NC(=C(C#N)C(=O)OC)c2cccnc2Cl)cc1 (stereo not drawn) [Compound 407]
12,3.28^[a],COC(=O)C(C#N)=C(NC(C)c1ccc(C)cc1)c1cccnc1Cl (stereo not drawn) [Compound 409]
13,3.42^[a],CCOC(=O)C(C#N)=C(Nc1ccccc1SC)c1c(C)nn(C)c1Cl [Compound 410]
14,4.35^[a],CCOC(=O)C(C#N)=C(NC(C)c1ccc(Cl)cc1)c1ccsc1Br (stereo not drawn) [Compound 411]
15,3.99^[a],CCOC(=O)C(C#N)=C(Nc1ccccc1SC)c1ccsc1Br [Compound 412]
